Results reported in patent US20210130401A1, “PEPTIDOMIMETIC INHIBITORS OF THE WDR5-MLL INTERACTION” (THE REGENTS OF THE UNIVERSITY OF MICHIGAN, priority 2017, published 2021).
Like-named read-outs stand apart in the source and are kept apart here. Starred links: 1 amine or outer side, 2 acyl side, 3 side chain; linkers in the order of their positions; H or OH if unused. Positions of bridges follow the written chain, without caps; N, C: chain ends. Non-standard residues stand in square brackets, D forms with d. Residues, ends and D or L forms follow the SMILES beside them. *: point of attachment. dαMeDab = C[C@](CCN[*:3])(N[*:1])C(=O)[*:2]; Arg(Me) = CNC(=N)NCCC[C@H](N)C(=O)O; dPhg = N[C@@H](C(=O)O)c1ccccc1; Isobutyryl = CC(C)C(=O)*; Abu = CC[C@H](N)C(=O)O

What was measured:
WDR5 = target: T1, WDR5 (Homo sapiens, UniProt P61964); assay: fluorescence polarization (FP) based competitive binding assay to WDR5 protein
T1 construct: N-terminal His-tagged WDR5 protein (residues 24-334), named WDR5Δ23; made in house; host or cells: E. coli Rosetta 2 (DE3)
Method: The plates were incubated at room temperature on a shaker for 3h, and then the mP values were measured using the Tecan Infinite M-1000 plate reader (Tecan U.S., Research Triangle Park, N.C.).

[1] = test system: MOLM-13 leukemia cells carrying MLL-AF9 fusion; assay: cell viability assay (WST-8), MOLM-13; assay type: cell-based; details: Homo sapiens, MOLM-13, 96 h; 4 days treatment; read-out: Cell Growth Inhibition IC50 (μM) MOLM-13
[2] = test system: MV4;11 leukemia cells carrying MLL-AF4 fusion; assay: cell viability assay (WST-8), MV4;11; assay type: cell-based; details: Homo sapiens, MV4-11, 96 h; 4 days treatment; read-out: Cell Growth Inhibition IC50 (μM) MV-4-11
Method: To assess cell viability, MOLM-13 leukemia cells carrying MLL-AF9 fusion, MV4;11 leukemia cells carrying MLL-AF4 fusion or HL-60 leukemia cells carrying no MLL fusion were seeded 1×10^4 cell/well in 96-well plates and treated with an inhibitor for 4 days at different concentrations, in culture media containing 0.2% DMSO as the final concentration. Cell viability was determined using the WST-8 cell proliferation assay kit (Dojindo Molecular Technologies) according to manufacturer's instructions. Three independent experiments in triplicates were performed.

[3] = test system: HL-60 leukemia cells carrying no MLL fusion; assay: cell viability assay (WST-8), HL-60; assay type: cell-based; details: for IC50: 4 days treatment, read-out: Cell Growth Inhibition IC50 (μM) HL-60
Method: Cell viability was determined using the WST-8 cell proliferation assay kit (Dojindo Molecular Technologies) according to manufacturer's instructions. Three independent experiments in triplicates were performed.

MLL2 = assay: HMT assay, SET1 family specificity; assay type: biochemical; details: up to 100 μM; data not shown
Method: (§1) The specificity of Cpd. No. 5 was tested against MLL and other SET1 family members (MLL2, MLL3, MLL4, SET1a and SET1b) using the previously published HMT assays (Karatas et al., J. Med. Chem. 53:5179-5185 (2010)). Cpd.

MLL3 = MLL3 (Homo sapiens, UniProt Q8NEZ4); assay: HMT assay, SET1 family specificity; assay type: biochemical; details: up to 100 μM; data not shown
Method: as §1

MLL4 = assay: HMT assay, SET1 family specificity; assay type: biochemical; details: up to 100 μM; data not shown
Method: as §1

SET1a = SET1a (Homo sapiens, UniProt O15047); assay: HMT assay, SET1 family specificity; assay type: biochemical; details: up to 100 μM; data not shown
Method: as §1

SET1b = SET1b (Homo sapiens, UniProt Q9UPS6); assay: HMT assay, SET1 family specificity; assay type: biochemical; details: up to 100 μM; data not shown
Method: as §1

[4] = stability in cell culture media; assay type: physicochemical; details: up to 7 days; data not shown
Method: To assess the effect of long-term treatment of compound Cpd. No. 5 on leukemia cells, MOLM-13 and MV4;11 cell lines were plated at a density of 5×10^4 cell/ml in 24-well plates (2 ml/well), and treated with the relevant concentrations. On day 4, cell viability for each treatment was measured using the WST-8 cell count kit. Then 10% of viable cells from each well were transferred to freshly prepared medium containing corresponding concentrations of compound Cpd. No. 5 and cultured for additional 3 days. On day 7, cell viability for each treatment was determined. In this experiment, 100,000 cells were seeded in each well in 24-well plates, whereas the cell growth inhibition data obtained for Cpd. No. 64 in Table 2 was obtained by seeding 10,000 cells in 96-well plates. Additionally, Cpd. No. 5 is stable in cell culture media up to 7 days (data not shown).

CC[C@@H]1NC(=O)[C@H](CCCNC(=N)NC)NC(=O)[C@](C)(NC(=O)C(C)C)CCNC(=O)[C@@H](c2ccccc2)NC1=O [Cpd. No. 5, N-((3R,6S,9S,12R)-6-ethyl-12-methyl-9-(3-(3-methylguanidino)propyl)-2,5,8,11-tetraoxo-3-phenyl-1,4,7,10-tetraazacyclotetradecan-12-yl)isobutyramide] (Isobutyryl-[dαMeDab][Arg(Me)][Abu][dPhg]; lactam 1-C)
IC50 (WDR5; Table 3A, read-out: Binding Affinity to WDR5 IC50): 2.13 nM
Ki (WDR5; Table 3A, read-out: Binding Affinity to WDR5 Ki): < 1 nM
Ki (WDR5; calculated from IC50 by published equation, read-out: Binding Affinity to WDR5 Ki ± SD): < 1 nM
IC50 (WDR5; read-out: Binding Affinity to WDR5 IC50 ± SD): 0.9 ± 0.2 nM
IC50 [1]: 0.21 µM
IC50 [2]: 0.25 µM
IC50 [3]: 8.56 ± 1.14 µM
IC50 ([3]; Homo sapiens, HL-60, 96 h): 8.6 µM
selectivity for the MV4;11 and MOLM-13 cell lines harboring MLL translocations over the HL-60 cell line ([3]; cell growth inhibition IC50 ratio): > 30 fold
inhibition of the HMT activity of MLL2 (MLL2): no or a minimal effect
inhibition of the HMT activity of MLL3 (MLL3): no or a minimal effect
inhibition of the HMT activity of MLL4 (MLL4): no or a minimal effect
inhibition of the HMT activity of SET1a (SET1a): no or a minimal effect
inhibition of the HMT activity of SET1b (SET1b): no or a minimal effect
stability in cell culture media [4]: stable
